Test results published in patent US10582709B2, “Butyrolactones as herbicides” (FMC Corporation, priority 2015, dated 2020).

Legend:
Assay type in all cases: in vivo
[1] = tested on: wheat (Triticum aestivum); assay: Test A postemergence, wheat; conditions: visual rating after approx. 10 d, 0 to 100 scale, 0 no effect, 100 complete control
Source text: (§1) Seeds of plant species selected from barnyardgrass (Echinochloa crus-galli), crabgrass (large crabgrass, Digitaria sanguinalis), kochia (Kochia scoparia), ragweed (common ragweed, Ambrosia elatior), morningglory (Ipomoea spp.), velvetleaf (Abutilon theophrasti), ryegrass, Italian (Italian ryegrass, Lolium multiflorum), foxtail, giant (giant foxtail, Setaria faberii), wheat (Triticum aestivum), corn (Zea mays), and pigweed (Amaranthus retroflexus), were planted into a blend of loam soil and sand and treated preemergence with a directed soil spray using test chemicals formulated in a non-phytotoxic solvent mixture which included a surfactant. At the same time, plants selected from these crop and weed species and also blackgrass (Alopecurus myosuroides), and galium (catchweed bedstraw, Galium aparine), were planted in pots containing the same blend of loam soil and sand and treated with postemergence applications of test chemicals formulated in the same manner. Plants ranged in height from 2 to 10 cm and were in the one- to two-leaf stage for the postemergence treatment. Treated plants and untreated controls were maintained in a greenhouse for approximately 10 d, after which time all treated plants were compared to untreated controls and visually evaluated for injury. Plant response ratings, summarized in Table A, are based on a 0 to 100 scale where 0 is no effect and 100 is complete control. A dash (-) response means no test result.

rice (Oryza sativa) = assay: Test B flooded paddy test, rice; conditions: 250 g ai/ha; applied to paddy water at 2-leaf stage; 13 to 15 d; scale 0 no effect to 100 complete control
Method: (§2) Plant species in the flooded paddy test selected from rice (Oryza sativa), sedge, umbrella (small-flower umbrella sedge, Cyperus difformis), ducksalad (Heteranthera limosa), and barnyardgrass (Echinochloa crus-galli) were grown to the 2-leaf stage for testing. At time of treatment, test pots were flooded to 3 cm above the soil surface, treated by application of test compounds directly to the paddy water, and then maintained at that water depth for the duration of the test. Treated plants and controls were maintained in a greenhouse for 13 to 15 d, after which time all species were compared to controls and visually evaluated. Plant response ratings, summarized in Table B, are based on a scale of 0 to 100 where 0 is no effect and 100 is complete control. A dash (-) response means no test result.

[2] = tested on: foxtail, giant (giant foxtail, Setaria faberii); assay: Test A postemergence, giant foxtail; conditions: visual rating after approx. 10 d, 0 to 100 scale, 0 no effect, 100 complete control
Source text: as §1

corn (Zea mays) = assay: Test A postemergence, corn; conditions: visual rating after approx. 10 d, 0 to 100 scale, 0 no effect, 100 complete control
Source text: as §1

[3] = tested on: ducksalad (Heteranthera limosa); assay: Test B flooded paddy test, ducksalad; conditions: 250 g ai/ha; applied to paddy water at 2-leaf stage; 13 to 15 d; scale 0 no effect to 100 complete control
Method: as §2

[4] = tested on: ragweed (common ragweed, Ambrosia elatior); assay: Test A postemergence, ragweed; conditions: visual rating after approx. 10 d, 0 to 100 scale, 0 no effect, 100 complete control
Source text: as §1

[5] = tested on: blackgrass (Alopecurus myosuroides); assay: Test A postemergence, blackgrass; conditions: visual rating after approx. 10 d, 0 to 100 scale, 0 no effect, 100 complete control
Source text: as §1

[6] = tested on: barnyardgrass (Echinochloa crus-galli); assay: Test B flooded paddy test, barnyardgrass; conditions: 250 g ai/ha; applied to paddy water at 2-leaf stage; 13 to 15 d; scale 0 no effect to 100 complete control
Method: as §2

[7] = tested on: ryegrass, Italian (Italian ryegrass, Lolium multiflorum); assay: Test A postemergence, Italian ryegrass; conditions: visual rating after approx. 10 d, 0 to 100 scale, 0 no effect, 100 complete control
Source text: as §1

[8] = tested on: barnyardgrass (Echinochloa crus-galli); assay: Test A postemergence, barnyardgrass; conditions: visual rating after approx. 10 d, 0 to 100 scale, 0 no effect, 100 complete control
Source text: as §1

[9] = tested on: sedge, umbrella (small-flower umbrella sedge, Cyperus difformis); assay: Test B flooded paddy test, umbrella sedge; conditions: 250 g ai/ha; applied to paddy water at 2-leaf stage; 13 to 15 d; scale 0 no effect to 100 complete control
Method: as §2

[10] = tested on: galium (catchweed bedstraw, Galium aparine); assay: Test A postemergence, galium; conditions: visual rating after approx. 10 d, 0 to 100 scale, 0 no effect, 100 complete control
Source text: as §1

kochia (Kochia scoparia) = assay: Test A postemergence, kochia; conditions: visual rating after approx. 10 d, 0 to 100 scale, 0 no effect, 100 complete control
Source text: as §1

[11] = tested on: pigweed (Amaranthus retroflexus); assay: Test A postemergence, pigweed; conditions: visual rating after approx. 10 d, 0 to 100 scale, 0 no effect, 100 complete control
Source text: as §1

| Compound | Plant response rating, Wheat ([1]; 125 g ai/ha) | Plant response rating, Flood, Rice (rice (Oryza sativa)) | Plant response rating, Foxtail, Giant ([2]; 125 g ai/ha) | Plant response rating, Corn (corn (Zea mays); 125 g ai/ha) | Plant response rating, Flood, Ducksalad [3] | Plant response rating, Ragweed ([4]; 125 g ai/ha) | Plant response rating, Blackgrass ([5]; 125 g ai/ha) | Plant response rating, Flood, Barnyardgrass [6] | Plant response rating, Ryegrass, Italian ([7]; 125 g ai/ha) | Plant response rating, Barnyardgrass ([8]; 125 g ai/ha) | Plant response rating, Flood, Sedge, Umbrella [9] | Plant response rating, Galium ([10]; 125 g ai/ha) | Plant response rating, Kochia (kochia (Kochia scoparia); 125 g ai/ha) | Plant response rating, Pigweed ([11]; 125 g ai/ha) | other results |
| --- | --- | --- | --- | --- | --- | --- | --- | --- | --- | --- | --- | --- | --- | --- | --- |
| CC1(C(=O)Nc2ccccc2C(F)(F)F)C(=O)OCC1c1ccc(F)cc1 (racemic) [Compound 21] | 0 | 30 | 0 | 0 | 90 | 0 | 0 | 90 | 0 | 0 | 0 | 0 | 0 | 0 | Plant response rating, Wheat ([1]; 500 g ai/ha): 0; Plant response rating, Foxtail, Giant ([2]; 500 g ai/ha): 0; Plant response rating, Corn (corn (Zea mays); 500 g ai/ha): 0; Plant response rating, Ragweed ([4]; 500 g ai/ha): 40; Plant response rating, Blackgrass ([5]; 500 g ai/ha): 30; Plant response rating, Ryegrass, Italian ([7]; 500 g ai/ha): 0; Plant response rating, Barnyardgrass ([8]; 500 g ai/ha): 30; Plant response rating, Galium ([10]; 500 g ai/ha): 30; Plant response rating, Kochia (kochia (Kochia scoparia); 500 g ai/ha): 0; Plant response rating, Pigweed ([11]; 500 g ai/ha): 0 |
| CC1(C(=O)Nc2cccc(F)c2F)C(=O)OCC1c1ccc(F)cc1 (racemic) [Compound 22] | 0 | 20 | 60 | 0 | 0 | 0 | 0 | 0 | 20 | 90 | 0 | 20 | 0 | 0 | Plant response rating, Wheat ([1]; 31 g ai/ha): 0; Plant response rating, Foxtail, Giant ([2]; 31 g ai/ha): 30; Plant response rating, Corn (corn (Zea mays); 31 g ai/ha): 0; Plant response rating, Ragweed ([4]; 31 g ai/ha): 0; Plant response rating, Blackgrass ([5]; 31 g ai/ha): 0; Plant response rating, Ryegrass, Italian ([7]; 31 g ai/ha): 20; Plant response rating, Barnyardgrass ([8]; 31 g ai/ha): 40; Plant response rating, Galium ([10]; 31 g ai/ha): 0; Plant response rating, Kochia (kochia (Kochia scoparia); 31 g ai/ha): 0; Plant response rating, Pigweed ([11]; 31 g ai/ha): 0 |
